Literature values, collected in patent US6395721B1, “Low potency unpreserved sterile topical corticosteroid compositions for dermatitis” (priority 2000, dated 2002).

Experiments:
skin of human volunteers = test system: skin of human volunteers; set-up: key to Ranking of Topical steroids for Psoriasis (potency group): I: Group 1 is the most potent; potency descends with each group to Group VII; III: potency descends with each group to Group VII; IV: potency descends with each group to Group VII; potency descends with each group to Group VII; potency descends with each group to Group VII; Group VII, which is least potent; settings: for potency of corticosteroid (in words): as worded for contemplated compositions, aldomethasone and desonide at 0.05%; for potency rating of steroid compositions on a scale of 1 to 7, with 7 being the least potent: rating in words, Cornell and Stoughton; for Ranking of Topical steroids for Psoriasis (potency group): no significant difference of agents within any given group
stripped skin = settings: applied to stripped skin, which develops erythema

Compound	potency of corticosteroid (in words) (skin of human volunteers)	potency rating of steroid compositions on a scale of 1 to 7, with 7 being the least potent (skin of human volunteers)	Ranking of Topical steroids for Psoriasis (potency group) (skin of human volunteers)	effect on erythema of stripped skin (stripped skin)
aldomethasone	low potency	–	–	–
C[C@]12CCC(=O)C=C1CC[C@@H]1[C@@H]2[C@@H](O)C[C@@]2(C)[C@H]1CC[C@]2(O)C(=O)CO [hydrocortisone]	–	Among the least potent steroids	VII.	develop blanching
CCCCC(=O)O[C@]1(C(=O)CO)CC[C@H]2[C@@H]3CCC4=CC(=O)CC[C@]4(C)[C@H]3[C@@H](O)C[C@@]21C [hydrocortisone valerate]	–	Among the least potent steroids	–	–
CC1(C)O[C@@H]2C[C@H]3[C@@H]4CCC5=CC(=O)C=C[C@]5(C)[C@H]4[C@@H](O)C[C@]3(C)[C@]2(C(=O)CO)O1 [desonide]	intermediate potency	Among the least potent steroids	–	–
C[C@H]1C[C@H]2[C@@H]3CCC4=CC(=O)C=C[C@]4(C)[C@@]3(F)[C@@H](O)C[C@]2(C)[C@@]1(O)C(=O)CCl [Clobetasol]	–	among the most potent steroids	–	–
flumethalone	–	–	VII.	–
CCCC(=O)O[C@]1(C(=O)CO)CC[C@H]2[C@@H]3CCC4=CC(=O)CC[C@]4(C)[C@H]3[C@@H](O)C[C@@]21C [hydrocortisone butyrate]	–	Among the least potent steroids	–	–
aldomethasone diproprionate	low potency	Among the least potent steroids	–	–
C[C@]12C=CC(=O)C=C1CC[C@@H]1[C@@H]2[C@@H](O)C[C@@]2(C)[C@H]1CC[C@]2(O)C(=O)CO [prednisolone]	–	–	VII.	–
C[C@]12CCC(=O)C=C1CC[C@@H]1[C@@H]2C(=O)C[C@@]2(C)[C@H]1CC[C@]2(O)C(=O)CO [cortisone]	–	Among the least potent steroids	–	–
